Results as given in ChEMBL document CHEMBL1138327, “Metal-based paullones as putative CDK inhibitors for antitumor chemotherapy” (2007).

Experiments:
Assay type in all cases: functional
A549 [1] = assay: Cell cycle arrest in human A549 cells assessed as accumulation at G2/M phase at 30 nM after 24 hrs by flow cytometry
A549 [2] = assay: Cell cycle arrest in human A549 cells assessed as accumulation at G0/G1 phase at 30 nM after 24 hrs by flow cytometry
A549 [3] = assay: Cell cycle arrest in human A549 cells assessed as accumulation at S phase at 30 nM after 24 hrs by flow cytometry

CN[C@@H]1C[C@H]2O[C@@](C)([C@@H]1OC)n1c3ccccc3c3c4c(c5c6ccccc6n2c5c31)C(=O)NC4 [STAUROSPORINE]
Activity (A549 [1]): 9.1%
Activity (A549 [2]): 74.6%
Activity (A549 [3]): 16.4%
